From patent publication US20120029187A1, “HALOALKYLSULFONANILIDE DERIVATIVE” (Nissan Chemical Industries, Ltd., priority 2009, published 2012)

Experiments:
Assay type in all cases: in vivo
[1] = tested on: Italian ryegrass; assay: Test Example 3: herbicidal effects in soil treatment; conditions: dose 3.2 g/a
Procedure, shortened: (§1)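 Seeds were sown in sterilized diluvial soil and covered with about 1.5 cm of soil. Compounds, formulated as emulsifiable concentrates and diluted with water, were sprayed evenly over the soil surface at set doses in g/a. Herbicidal effect was scored on a rating scale three weeks later.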

[2] = tested on: common lambsquater; assay: as above; conditions: dose 3.2 g/a
Procedure, shortened: as §1

[3] = tested on: giant foxtail; assay: as above; conditions: dose 3.2 g/a
Procedure, shortened: as §1

[4] = tested on: common chickweed; assay: as above; conditions: dose 3.2 g/a
Procedure, shortened: as §1

[5] = tested on: velvetleaf; assay: as above; conditions: dose 3.2 g/a
Procedure, shortened: as §1

[6] = tested on: large crabgrass; assay: as above; conditions: dose 3.2 g/a
Procedure, shortened: as §1

[7] = tested on: barnyardgrass; assay: as above; conditions: dose 3.2 g/a
Procedure, shortened: as §1

[8] = tested on: posumbu knotweed; assay: as above; conditions: dose 3.2 g/a
Procedure, shortened: as §1

[9] = tested on: water foxtail; assay: as above; conditions: dose 3.2 g/a
Procedure, shortened: as §1

[10] = tested on: wild oat; assay: as above; conditions: dose 3.2 g/a
Procedure, shortened: as §1

[11] = tested on: redroot pigweed; assay: as above; conditions: dose 3.2 g/a
Procedure, shortened: as §1

[12] = tested on: common ragweed; assay: as above; conditions: dose 3.2 g/a
Procedure, shortened: as §1

[13] = tested on: bulrush; assay: Test Example 2: herbicidal effects during the vegetation period under submerged conditions; conditions: treatment during the vegetation period under submerged conditions; dose 2.52 g/a
Procedure, shortened: (§2)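 Barnyardgrass, bulrush and ducksalad were co-sown in alluvial soil flooded to 4 cm and grown in a greenhouse at 25 to 30° C. At the 1- or 2-leaf stage, water-diluted emulsifiable concentrates went onto the water surface at set doses (g/a). Herbicidal effect was scored three weeks later on a graded scale.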

[14] = tested on: barnyardgrass; assay: as above; conditions: treatment during the vegetation period under submerged conditions; dose 2.52 g/a
Procedure, shortened: as §2

[15] = tested on: ducksalad; assay: as above; conditions: treatment during the vegetation period under submerged conditions; dose 2.52 g/a
Procedure, shortened: as §2

[16] = tested on: transplanted rice; assay: Test Example 1: preemergence treatment under submerged conditions, effect on crop; conditions: dose 2.52 g/a
Procedure, shortened: (§3)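 Submerged conditions, 4 cm water over alluvial soil. Weeds sown and 2.5-leaf rice transplanted; compound applied preemergence to water surface, doses in g per are. Greenhouse, 25 to 30° C., three weeks, then 0–5 mortality rating.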

[17] = tested on: bulrush; assay: Test Example 1: herbicidal effects in preemergence treatment under submerged conditions; conditions: dose 2.52 g/a
Procedure, shortened: as §3

[18] = tested on: barnyardgrass; assay: as above; conditions: dose 2.52 g/a
Procedure, shortened: as §3

[19] = tested on: ducksalad; assay: as above; conditions: dose 2.52 g/a
Procedure, shortened: as §3

[20] = tested on: Italian ryegrass; assay: Test Example 4: herbicidal effect in foliage treatment; conditions: dose 3.2 g/a
Procedure, shortened: (§4)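 Foliar spray, post-emergence: 14-day-old greenhouse plants (25–30° C, diluvial soil) treated with water-diluted EC at set g/a doses; visual herbicidal score at 3 wk post-application.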

[21] = tested on: common lambsquater; assay: as above; conditions: dose 3.2 g/a
Procedure, shortened: as §4

[22] = tested on: giant foxtail; assay: as above; conditions: dose 3.2 g/a
Procedure, shortened: as §4

[23] = tested on: common chickweed; assay: as above; conditions: dose 3.2 g/a
Procedure, shortened: as §4

[24] = tested on: velvetleaf; assay: as above; conditions: dose 3.2 g/a
Procedure, shortened: as §4

[25] = tested on: large crabgrass; assay: as above; conditions: dose 3.2 g/a
Procedure, shortened: as §4

[26] = tested on: barnyardgrass; assay: as above; conditions: dose 3.2 g/a
Procedure, shortened: as §4

[27] = tested on: posumbu knotweed; assay: as above; conditions: dose 3.2 g/a
Procedure, shortened: as §4

[28] = tested on: water foxtail; assay: as above; conditions: dose 3.2 g/a
Procedure, shortened: as §4

[29] = tested on: wild oat; assay: as above; conditions: dose 3.2 g/a
Procedure, shortened: as §4

[30] = tested on: redroot pigweed; assay: as above; conditions: dose 3.2 g/a
Procedure, shortened: as §4

[31] = tested on: common ragweed; assay: as above; conditions: dose 3.2 g/a
Procedure, shortened: as §4

[32] = tested on: beadstraw; assay: as above; conditions: dose 3.2 g/a
Procedure, shortened: as §4

[33] = three weeks after the application

`CCN1COCN(Cc2ccccc2N(C(=O)OCCCl)S(=O)(=O)C(F)(F)F)C1=O` [IV-7] was tested, and the “herbicidal effect, H: Italian ryegrass” value [1] was 4 (mortality of at least 70% and less than 90%), the “herbicidal effect, L: common lambsquater” value [2] was 4 (mortality of at least 70% and less than 90%) and the “herbicidal effect, E: giant foxtail” value [3] was 3 (mortality of at least 40% and less than 70%). For the same compound, the “herbicidal effect, N: common chickweed” value [4] was 4 (mortality of at least 70% and less than 90%), the “herbicidal effect, I: velvetleaf” value [5] was 5 (mortality of 90% or above (nearly complete death)) and the “herbicidal effect, D: large crabgrass” value [6] was 5 (mortality of 90% or above (nearly complete death)). For the same compound, the “herbicidal effect, A: barnyardgrass” value [7] was 5 (mortality of 90% or above (nearly complete death)), the “herbicidal effect, M: posumbu knotweed” value [8] was 0 (mortality of less than 5% (almost ineffective)) and the “herbicidal effect, G: water foxtail” value [9] was 5 (mortality of 90% or above (nearly complete death)). For the same compound, the “herbicidal effect, F: wild oat” value [10] was 1 (mortality of at least 5% and less than 20%), the “herbicidal effect, K: redroot pigweed” value [11] was 1 (mortality of at least 5% and less than 20%) and the “herbicidal effect, J: common ragweed” value [12] was 0 (mortality of less than 5% (almost ineffective)). The “B: bulrush, herbicidal effect (evaluation scale 0-5)” value (“B: bulrush, herbicidal effect” for short) [13] was 5 (mortality of 90% or above (nearly complete death)), the “A: barnyardgrass, herbicidal effect (evaluation scale 0-5)” value [14] was 5 (mortality of 90% or above (nearly complete death)) and the “C: ducksalad, herbicidal effect (evaluation scale 0-5)” value (“C: ducksalad, herbicidal effect” below) [15] was 5 (mortality of 90% or above (nearly complete death)). The “a: transplanted rice, effect on crop (evaluation scale 0-5)” value [16] was 0 (mortality of less than 5% (almost ineffective)), the “B: bulrush, herbicidal effect” value [17] was 5 (mortality of 90% or above (nearly complete death)) and the “A: barnyardgrass, herbicidal effect (evaluation scale 0-5)” value [18] was 5 (mortality of 90% or above (nearly complete death)). The “C: ducksalad, herbicidal effect” value [19] was 4 (mortality of at least 70% and less than 90%), the “H: Italian ryegrass, herbicidal effect” value [20, 33] was 3 (mortality of at least 40% and less than 70%) and the “L: common lambsquater, herbicidal effect” value [21, 33] was 4 (mortality of at least 70% and less than 90%). For the same compound, the “E: giant foxtail, herbicidal effect” value [22, 33] was 4 (mortality of at least 70% and less than 90%), the “N: common chickweed, herbicidal effect” value [23, 33] was 4 (mortality of at least 70% and less than 90%) and the “I: velvetleaf, herbicidal effect” value [24, 33] was 4 (mortality of at least 70% and less than 90%). For the same compound, the “D: large crabgrass, herbicidal effect” value [25, 33] was 4 (mortality of at least 70% and less than 90%), the “A: barnyardgrass, herbicidal effect” value [26, 33] was 4 (mortality of at least 70% and less than 90%) and the “M: posumbu knotweed, herbicidal effect” value [27, 33] was 0 (mortality of less than 5% (almost ineffective)). For the same compound, the “G: water foxtail, herbicidal effect” value [28, 33] was 5 (mortality of 90% or above (nearly complete death)), the “F: wild oat, herbicidal effect” value [29, 33] was 0 (mortality of less than 5% (almost ineffective)) and the “K: redroot pigweed, herbicidal effect” value [30, 33] was 0 (mortality of less than 5% (almost ineffective)). For the same compound, the “J: common ragweed, herbicidal effect” value [31, 33] was 3 (mortality of at least 40% and less than 70%) and the “O: beadstraw, herbicidal effect” value [32, 33] was 3 (mortality of at least 40% and less than 70%).
`CC1COCC(=O)N1Cc1ccccc1NS(=O)(=O)C(F)(F)F` (stereo not shown) [Compound I-13] was tested, and the “H: Italian ryegrass, herbicidal effect (evaluation scale 0-5)” value [1] was 5 (mortality of 90% or above (nearly complete death)), the “L: common lambsquater, herbicidal effect (evaluation scale 0-5)” value [2] was 5 (mortality of 90% or above (nearly complete death)) and the “E: giant foxtail, herbicidal effect (evaluation scale 0-5)” value [3] was 5 (mortality of 90% or above (nearly complete death)). The “N: common chickweed, herbicidal effect (evaluation scale 0-5)” value [4] was 5 (mortality of 90% or above (nearly complete death)), the “I: velvetleaf, herbicidal effect (evaluation scale 0-5)” value [5] was 5 (mortality of 90% or above (nearly complete death)) and the “D: large crabgrass, herbicidal effect (evaluation scale 0-5)” value [6] was 5 (mortality of 90% or above (nearly complete death)). For the same compound, the “A: barnyardgrass, herbicidal effect (evaluation scale 0-5)” value [7] was 5 (mortality of 90% or above (nearly complete death)), the “M: posumbu knotweed, herbicidal effect (evaluation scale 0-5)” value [8] was 5 (mortality of 90% or above (nearly complete death)) and the “G: water foxtail, herbicidal effect (evaluation scale 0-5)” value [9] was 5 (mortality of 90% or above (nearly complete death)). For the same compound, the “F: wild oat, herbicidal effect (evaluation scale 0-5)” value [10] was 3 (mortality of at least 40% and less than 70%), the “K: redroot pigweed, herbicidal effect (evaluation scale 0-5)” value [11] was 5 (mortality of 90% or above (nearly complete death)) and the “J: common ragweed, herbicidal effect (evaluation scale 0-5)” value [12] was 5 (mortality of 90% or above (nearly complete death)). The “B: bulrush, herbicidal effect” value [13] was 5 (mortality of 90% or above (nearly complete death)), the “A: barnyardgrass, herbicidal effect (evaluation scale 0-5)” value [14] was 5 (mortality of 90% or above (nearly complete death)) and the “C: ducksalad, herbicidal effect” value [15] was 5 (mortality of 90% or above (nearly complete death)). For the same compound, the “a: transplanted rice, effect on crop (evaluation scale 0-5)” value [16] was 1 (mortality of at least 5% and less than 20%), the “B: bulrush, herbicidal effect” value [17] was 5 (mortality of 90% or above (nearly complete death)) and the “A: barnyardgrass, herbicidal effect (evaluation scale 0-5)” value [18] was 5 (mortality of 90% or above (nearly complete death)). The “C: ducksalad, herbicidal effect” value [19] was 5 (mortality of 90% or above (nearly complete death)), the “H: Italian ryegrass, herbicidal effect” value ([20]; three weeks after application) was 5 (mortality of 90% or above (nearly complete death)) and the “L: common lambsquater, herbicidal effect” value ([21]; three weeks after application) was 3 (mortality of at least 40% and less than 70%). For the same compound, the “E: giant foxtail, herbicidal effect” value ([22]; three weeks after application) was 4 (mortality of at least 70% and less than 90%), the “N: common chickweed, herbicidal effect” value ([23]; three weeks after application) was 4 (mortality of at least 70% and less than 90%) and the “I: velvetleaf, herbicidal effect” value ([24]; three weeks after application) was 5 (mortality of 90% or above (nearly complete death)). The “D: large crabgrass, herbicidal effect” value ([25]; three weeks after application) was 5 (mortality of 90% or above (nearly complete death)), the “A: barnyardgrass, herbicidal effect” value ([26]; three weeks after application) was 5 (mortality of 90% or above (nearly complete death)) and the “M: posumbu knotweed, herbicidal effect” value ([27]; three weeks after application) was 3 (mortality of at least 40% and less than 70%). For the same compound, the “G: water foxtail, herbicidal effect” value ([28]; three weeks after application) was 5 (mortality of 90% or above (nearly complete death)), the “F: wild oat, herbicidal effect” value ([29]; three weeks after application) was 0 (mortality of less than 5% (almost ineffective)) and the “K: redroot pigweed, herbicidal effect” value ([30]; three weeks after application) was 3 (mortality of at least 40% and less than 70%). The “J: common ragweed, herbicidal effect” value ([31]; three weeks after application) was 4 (mortality of at least 70% and less than 90%) and the “O: beadstraw, herbicidal effect” value ([32]; three weeks after application) was 4 (mortality of at least 70% and less than 90%).
